Measurements from patent publication US4032635A, “Pharmaceutical method for the therapy of immune diseases” (Zaidan Hojin Biseibutsu Kagaku Kenkyu Kai, priority 1975, dated 1977).
Like-named read-outs stand apart in the source and are kept apart here. Where a SMILES comes first, the peptide text is derived from it. [ ]: non-standard residue; d: D form. The star is where a group is joined. Sta = CC(C)C[C@H](N)[C@@H](O)CC(=O)O; Isovaleryl = CC(C)CC(=O)*

How the values were obtained:
[1] = tested on: Delayed-Type Hypersensitivity (DTH) to sheep red blood cells (SRBC); assay: Suppression of delayed-type hypersensitivity (SRBC footpad swelling); type: in vivo, mouse; conditions: for inhibition in vivo at 1 mg: Erythrocyte; for suppression of DTH reaction: anti-inflammatory drugs and protease-inhibitors, 1 mg./mouse
Protocol: The compounds of Formula (I) show suppression of various delayed-type hypersensitivity. In reference to the method by Lagrange [J. Exp. Med. 139, 528 (1974)], 10^8 sheep red blood cells (SRBC) without adjuvant were subcutaneously injected into the mouse hind footpad to immunize the animal. Four days later the animals were challenged by subcutaneous injection of 10^8 SRBC into another footpad. DTH response was measured as the increase in the thickness of footpad 24 hours after the injection of SRBC.
Varying doses of Compound-1 were administered orally or intraperitoneally either at the time of immunization (day 0) or challenge (day 4).
In FIG. 1 the ordinate indicates the swelling (× 0.1 mm.) of mice footpads on day 5 and the abscissa indicates the dose of Compound-1 per mouse administered by the oral (right) and intraperitoneal (left) routes. Solid line curve indicates the relationship when Compound-1 was administered on day 0 and the dotted line curve indicates the relationship when given on day 4.
The compounds were administered intraperitoneally in a dose 1 mg./mouse at the time of immunization (day 0) or challenge (day 4). Table 1 includes the results of humoral antibody response described later.

[2] = tested on: primary antibody formation to sheep red blood cells (SRBC), spleen cells; assay: Suppression of primary antibody formation (plaque forming cells, Jerne's method); type: in vivo, mice (ddY-strain); conditions: for inhibition in vivo at 1 mg: Erythrocyte, ip, 96 h, read-out: Suppression, Plaque Forming Cells (suppression rate of primary antibody formation)
Protocol: 10^8 sheep red blood cells (SRBC) were injected intravenously into ddY-strain mice to immunize the animals, when the compounds of Formula (I) were administered intraperitoneally.
Each compound was administered intraperitoneally in the dosage of 1 mg./mouse.

[3] = tested on: carrageenin-induced edema; conditions: 1 mg./mouse; cited from earlier work
[4] = Acute toxicity, intraperitoneal; conditions: mouse, in vivo, ip, mice, read-out: LD50 (approximate)
Protocol: Acute toxicological studies were carried out on mice by intraperitoneal administration of the compounds of Formula (I). The approximate LD50 values for representative compounds are given as follows: […]

[5] = tested on: passive cutaneous anaphylaxis (PCA); assay: Suppression of passive cutaneous anaphylaxis (PCA); type: in vivo, guinea pigs; conditions: oral 100 mg./kg.; dilution giving a 10 mm. diameter blue zone; control 1060
Protocol: The compounds of Formula (I) are active in suppressing passive cutaneous anaphylaxis (PCA) in guinea pigs. Guinea pigs received intradarmally serial dilutions of antiserum (0.1 ml.), which was obtained from guinea pigs immunized with a mixture of egg albumin and Freund's complete adjuvant. At the time of sensitization with antiserum, the compound of Formula (I) was administered either orally (100 mg./kg.) or intraperitoneally (50 mg./kg.).
Four hours later the animals were challenged by intravenous injection of a mixture of 5 mg. egg albumin and Evans blue dye. The reaction was measured 30 minutes later by the blue zone which emerged at the point of antiserum injection.

[6] = 96 h, 1 mg./mouse i.p., at challenge (day 4), read-out: Suppression, Delayed-Type Hypersensitivity, Administered at Induction (suppression rate)
[7] = ip, 0 h, 1 mg./mouse i.p., at immunization (day 0), read-out: Suppression, Delayed-Type Hypersensitivity, Administered at Immunization (suppression rate)

| SMILES | inhibition in vivo at 1 mg [1, 6] | inhibition in vivo at 1 mg [1, 7] | inhibition in vivo at 1 mg ([2]; 1 mg./mouse i.p.) | LD50 [4] | other results |
| --- | --- | --- | --- | --- | --- |
| O=C(Nc1cc(Cl)c(O)c(Cl)c1)c1ccc(F)cc1O [Compound 10] | > 75% | 0 to 25% | 25 to 50% |  |  |
| Cc1ccc(C(=O)Nc2cc(Cl)c(O)c(Cl)c2)c(O)c1 [Compound 11] | 0 to 25% | > 75% | 25 to 50% |  |  |
| O=C(Nc1ccc(O)c(Cl)c1)c1ccccc1O [Compound 22] | 0 to 25% | 0 to 25% | > 75% |  |  |
| O=C(Nc1cc(F)c(O)c(Cl)c1)c1ccccc1O [Compound 17] | > 75% | 0 to 25% | > 75% |  |  |
| Cc1cc(Cl)c(O)c(NC(=O)c2ccccc2O)c1 [Compound 20] | > 75% | 0 to 25% | 50 to 75% |  |  |
| CC(=O)Oc1ccccc1C(=O)O [aspirin, reference compound] |  |  |  |  | suppression of DTH reaction [1]: little suppression of this DTH reaction; suppression of carrageenin-induced edema [3]: strongly suppress carrageenin-induced edema |
| O=C(O)COc1c(Cl)cc(NC(=O)c2ccccc2O)cc1Cl [Compound 9] | > 75% | 0 to 25% | 0 to 25% |  |  |
| CC(=O)Oc1ccccc1C(=O)Nc1cc(Cl)cc(Cl)c1OC(C)=O [Compound 7] | > 75% | 0 to 25% | 50 to 75% | > 3000 mg/kg |  |
| CCOc1ccc(NC(=O)c2ccc(F)cc2O)cc1Cl [Compound 24] | 50 to 75% | 0 to 25% | 25 to 50% |  |  |
| CC(=O)Oc1ccccc1C(=O)Nc1cc(Cl)c(O)c(Cl)c1 [Compound 8] | 0 to 25% | 0 to 25% | 25 to 50% |  |  |
| COc1c(F)cc(NC(=O)c2ccc(Cl)cc2O)cc1Cl [Compound 18] | > 75% | 0 to 25% | 25 to 50% |  |  |
| CCOc1ccc(NC(=O)c2ccc(F)cc2O)cc1 [Compound 31] | > 75% | 0 to 25% | 50 to 75% |  |  |
| CC(C)C[C@H](NC(=O)[C@@H](NC(=O)N[C@@H](Cc1ccccc1)C(=O)O)[C@@H]1CCN=C(N)N1)C(=O)N[C@H](C=O)Cc1ccccc1 [chymostatin, reference compound] |  |  |  |  | suppression of DTH reaction [1]: little suppression of this DTH reaction; suppression of carrageenin-induced edema [3]: strongly suppress carrageenin-induced edema |
| CCC(=O)Oc1ccccc1C(=O)Nc1cc(Br)cc(Br)c1OC(=O)CC [Compound 15] | 50 to 75% | 50 to 75% | 0 to 25% | 2200 mg/kg |  |
| O=C(Nc1ccc(O)cc1)c1ccccc1O [Compound 26] | 50 to 75% | 0 to 25% | 50 to 75% |  |  |
| CC(=O)Oc1ccccc1C(=O)Nc1cccc(Cl)c1OC(C)=O [Compound 25] | 25 to 50% | 0 to 25% | 50 to 75% | 2500 mg/kg |  |
| COc1ccc(NC(=O)c2ccc(C)cc2OC(C)=O)cc1 [Compound 32] |  |  |  |  | Suppression, Delayed-Type Hypersensitivity, Administered at Induction (suppression rate) ([1]; 1 mg./mouse i.p., at challenge (day 4)): + (25 - 50%+-); Suppression, Delayed-Type Hypersensitivity, Administered at Immunization (suppression rate) ([1]; 1 mg./mouse i.p., at immunization (day 0)): - (0 - 25% +-); Suppression, Plaque Forming Cells (suppression rate of primary antibody formation) ([2]; 1 mg./mouse i.p.): - (0 - 25% +-) |

| SMILES | inhibition in vivo at 1 mg [1, 6] | inhibition in vivo at 1 mg [1, 7] | inhibition in vivo at 1 mg ([2]; 1 mg./mouse i.p.) | LD50 [4] | other results |
| --- | --- | --- | --- | --- | --- |
| CC(=O)Oc1ccccc1C(=O)Nc1cc(Cl)c(OC(C)=O)c(Cl)c1 [Compound-4, 2,4'-Diacetoxy-3',5'-dichlorobenzanilide] | > 75% | 0 to 25% | 50 to 75% |  |  |
| COc1ccc(NC(=O)c2ccc(F)cc2O)cc1 [Compound 28] | > 75% | 0 to 25% | > 75% | 2800 mg/kg |  |
| O=C(Nc1cccc(Cl)c1O)c1ccccc1O [Compound 23] | 0 to 25% | 0 to 25% | 50 to 75% | 1550 mg/kg |  |
| O=C(Nc1cc(Br)c(O)c(Br)c1)c1ccccc1O [Compound-12, 3',5'-Dibromo-2,4'-dihydroxybenzanilide] | 50 to 75% | > 75% | 0 to 25% | 1100 mg/kg | Max. Dilution of Antiserum, Oral [5]: 548 |
| CC(=O)N[C@@H](CC(C)C)C(=O)N[C@@H](CC(C)C)C(=O)N[C@H](C=O)CCCNC(=N)N [leupeptin, reference compound] |  |  |  |  | suppression of DTH reaction [1]: little suppression of this DTH reaction; suppression of carrageenin-induced edema [3]: strongly suppress carrageenin-induced edema |
| O=C(Oc1ccccc1C(=O)Nc1cc(Cl)c(OC(=O)c2ccccc2)c(Cl)c1)c1ccccc1 [Compound 6] | > 75% | 0 to 25% | > 75% | 2800 mg/kg |  |
| CCOc1c(Br)cc(NC(=O)c2ccccc2O)cc1Br [Compound 14] | > 75% | 50 to 75% | 0 to 25% |  |  |
| COc1c(Cl)cc(NC(=O)c2ccccc2O)cc1Cl [Compound 3] | > 75% | 0 to 25% | 50 to 75% |  |  |
| COc1ccc(NC(=O)c2ccccc2O)cc1 [Compound-27, 2-Hydroxy-4'-methoxybenzanilide] | > 75% | 0 to 25% | > 75% | > 3000 mg/kg | Max. Dilution of Antiserum, Oral [5]: 284 |
| CC(C)CC(=O)N[C@H](C(=O)N[C@H](C(=O)N[C@@H](CC(C)C)[C@@H](O)CC(=O)N[C@@H](C)C(=O)N[C@@H](CC(C)C)[C@@H](O)CC(=O)O)C(C)C)C(C)C [pepstatin, reference compound] (Isovaleryl-VV[Sta]A[Sta]-OH) |  |  |  |  | suppression of DTH reaction [1]: little suppression of this DTH reaction; suppression of carrageenin-induced edema [3]: strongly suppress carrageenin-induced edema |
| Cc1ccc(C(=O)Nc2cc(Br)c(O)c(Br)c2)c(O)c1 [Compound 16] | > 75% | 50 to 75% | 0 to 25% |  |  |
| CCC(=O)Oc1ccccc1C(=O)Nc1cc(Cl)c(OC(=O)CC)c(Cl)c1 [Compound 5] | > 75% | 0 to 25% | 50 to 75% |  |  |
| O=C(Nc1cc([N+](=O)[O-])cc([N+](=O)[O-])c1O)c1ccccc1O [Compound 21] |  |  |  |  | inhibition in vivo at 1 mg ([1]; Mus musculus, 96 h, read-out: Suppression, Delayed-Type Hypersensitivity, Administered at Induction (suppression rate)): > 75%; inhibition in vivo at 1 mg ([1]; Mus musculus, ip, 0 h, read-out: Suppression, Delayed-Type Hypersensitivity, Administered at Immunization (suppression rate)): 50 to 75%; inhibition in vivo at 1 mg ([2]; Mus musculus): 0 to 25% |
| O=C(Nc1cc(Br)cc(Br)c1O)c1ccccc1O [Compound 13] | 50 to 75% | 50 to 75% | 0 to 25% | 1280 mg/kg |  |
| Cc1cc(Cl)cc(NC(=O)c2ccccc2O)c1O [Compound 19] | 25 to 50% | 0 to 25% | 25 to 50% | 1800 mg/kg |  |
| COc1ccc(NC(=O)c2ccc(C)cc2O)cc1 [Compound-29, 2-Hydroxy-4-methyl-4'-methoxybenzanilide] | > 75% | 0 to 25% | 25 to 50% | 2500 mg/kg |  |
